The experiment deals with Endogenous Huntingtin Protein. The experiment can be described thus: Endogenous Huntingtin Protein Assay (ELISA-based MSD electrochemiluminescence). As to conditions: Table 1. The class given is cell-based. In short, it runs like this: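 Huntingtin was captured overnight at 4 °C on plates coated with 1 μg/mL MW1 (polyQ-expanded) or MAB2166 antibody and BSA-blocked. Detection used a rabbit monoclonal and then a SULFO-TAG goat anti-rabbit antibody (0.25 μg/mL, 1 h each, room temperature). Signal was read by electrochemiluminescence.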
Background: ELISA stands for enzyme-linked immunosorbent assay.
The molecule `Cc1cn2nc(-c3cc(F)c4nc(C5CCNCC5)sc4c3)cc(O)c2n1` [Compound 189, 6-[4-fluoro-2-(piperidin-4-yl)-1,3-benzothiazol-6-yl]-2-methylimidazo[1,2-b]pyridazin-8-ol] yielded a concentration for half-maximal inhibition (IC50) of 100 to 500 nM.
`CN(c1nc2cnc(-c3cc(C#N)c4nn(C)cc4c3)cc2s1)C1CC2CCCC(C1)N2C` (stereo not drawn) [Compound 272, 2-methyl-5-{2-[methyl(9-methyl-9-azabicyclo[3.3.1]non-3-yl)amino][1,3]thiazolo[4,5-c]pyridin-6-yl}-2H-indazole-7-carbonitrile]: the IC50 was in the range of 100 to 500 nM.
For the molecule `Cc1cc(-c2ncc3nc(C4CCNCC4)sc3n2)cc2cn(C)nc12` [Compound 110, 5-(2,7-dimethyl-2H-indazol-5-yl)-2-(piperidin-4-yl)[1,3]thiazolo[5,4-d]pyrimidine], the concentration for half-maximal inhibition (IC50) was 100 to 500 nM.
Molecule `Cc1cn2cc(-c3ncc4nc(N(C)C5C6CCC5CNC6)sc4n3)cc(C#N)c2n1` (stereo not drawn) [Compound 228, 6-{2-[(8-anti)-3-azabicyclo[3.2.1]oct-8-yl(methyl)amino][1,3]thiazolo[5,4-d]pyrimidin-5-yl}-2-methylimidazo[1,2-a]pyridine-8-carbonitrile] displayed an IC50 of 500 to 1000 nM.
In the case of `CN1CC2(C1)CN(c1nc3nnc(-c4ccc(-c5c[nH]nc5F)cc4O)cc3s1)C2` [Compound 385, 5-(3-fluoro-1H-pyrazol-4-yl)-2-[6-(6-methyl-2,6-diazaspiro[3.3]heptan-2-yl)[1,3]thiazolo[4,5-c]pyridazin-3-yl]phenol], the IC50 was no more than 100 nM.
In turn, `CN1[C@@H]2CC[C@H]1C[C@H](Nc1nc3cnc(-c4cc(C#N)c5nn(C)cc5c4)cc3s1)C2` [Compound 244, 2-methyl-5-(2-{[(3-exo)-8-methyl-8-azabicyclo[3.2.1]oct-3-yl]amino][1,3]thiazolo[4,5-c]pyridin-6-yl)-2H-indazole-7-carbonitrile] yielded an IC50 of 1000 to 3000 nM.
On to `Cc1cn2nc(-c3cnc4nc(N5CCNCC5)sc4n3)ccc2n1` [Compound 182, 6-(2-methylimidazo[1,2-b]pyridazin-6-yl)-2-(piperazin-1-yl)[1,3]thiazolo[4,5-b]pyrazine], for which the IC50 fell in the range of 500 to 1000 nM.
For `CC1CC(N(C)c2nc3cnc(-c4cc(F)c5nn(C)cc5c4)cc3s2)CCN1C` (stereo not drawn) [Compound 378, N-(1,2-dimethylpiperidin-4-yl)-6-(7-fluoro-2-methyl-2H-indazol-5-yl)-N-methyl[1,3]thiazolo[4,5-c]pyridin-2-amine], the IC50 is 100 to 500 nM.
`Cc1cn2cc(-c3cc4sc(N(C)[C@@H]5CC(C)(C)NC(C)(C)[C@@H]5F)nc4cn3)cc(C#N)c2n1` [Compound 325, 6-(2-{[(3R,4R)-3-fluoro-2,2,6,6-tetramethylpiperidin-4-yl](methyl)amino}[1,3]thiazolo[4,5-c]pyridin-6-yl)-2-methylimidazo[1,2-a]pyridine-8-carbonitrile] displayed an IC50 of no more than 100 nM.
The molecule `Cc1cn2cc(-c3cc4sc(NC5CC(C)(C)N(C)C(C)(C)C5)nc4cn3)cc(C#N)c2n1` [Compound 266, 2-methyl-6-{2-[(1,2,2,6,6-pentamethylpiperidin-4-yl)amino][1,3]thiazolo[4,5-c]pyridin-6-yl}imidazo[1,2-a]pyridine-8-carbonitrile] gave an IC50 of 100 to 500 nM.
In the case of `Cc1cn2nc(-c3cc(F)c4nc(N5CCNCC5)sc4c3)cc(C)c2n1` [Compound 120, 6-[4-fluoro-2-(piperazin-1-yl)-1,3-benzothiazol-6-yl]-2,8-dimethylimidazo[1,2-b]pyridazine] it was no more than 100 nM; in that of `Cc1cn2nc(-c3cc(F)c4nc(OC5CC(C)(C)NC(C)(C)C5)sc4c3)cc(C)c2n1` [Compound 133, 6-{4-fluoro-2-[(2,2,6,6-tetramethylpiperidin-4-yl)oxy]-1,3-benzothiazol-6-yl}-2,8-dimethylimidazo[1,2-b]pyridazine], no more than 100 nM.
`Cc1cn2cc(-c3cc4sc(N(C)C5CC6CCCC(C5)N6C)nc4cn3)cc(F)c2n1` (stereo not drawn) [Compound 271, 6-(8-fluoro-2-methylimidazo[1,2-a]pyridin-6-yl)-N-methyl-N-(9-methyl-9-azabicyclo[3.3.1]non-3-yl)[1,3]thiazolo[4,5-c]pyridin-2-amine] registered an IC50 of 100 to 500 nM.
For `Cc1cn2cc(-c3ncc4nc(N(C)C5C6CCC5CNC6)sc4n3)cc(F)c2n1` (stereo not drawn) [Compound 227, N-[(8-anti)-3-azabicyclo[3.2.1]oct-8-yl]-5-(8-fluoro-2-methylimidazo[1,2-a]pyridin-6-yl)-N-methyl[1,3]thiazolo[5,4-d]pyrimidin-2-amine], the IC50 was in the range of 1000 to 3000 nM.
For the molecule `CN(c1nc2nnc(-c3ccc(-c4cn[nH]c4)cc3O)cc2s1)[C@H]1CNC[C@@H]1F` [Compound 381, 2-(6-{[(3S,4S)-4-fluoropyrrolidin-3-yl](methyl)amino}[1,3]thiazolo[4,5-c]pyridazin-3-yl)-5-(1H-pyrazol-4-yl)phenol], the IC50 was in the range of 100 to 500 nM.
In the case of `Cc1cn2cc(-c3ccc4nc(N(C)C5CC(C)(C)NC(C)(C)C5)sc4c3)cc(C#N)c2n1` [Compound 138, 2-methyl-6-{2-[methyl(2,2,6,6-tetramethylpiperidin-4-yl)amino]-1,3-benzothiazol-6-yl}imidazo[1,2-a]pyridine-8-carbonitrile] it was no more than 100 nM; in that of `Cc1cn2cc(-c3cc4sc(N(C)C5CC6CCC(C5)N6)nc4cn3)cc(C#N)c2n1` (stereo not drawn) [Compound 203, 6-{2-[(3-exo)-8-azabicyclo[3.2.1]oct-3-yl(methyl)amino][1,3]thiazolo[4,5-c]pyridin-6-yl}-2-methylimidazo[1,2-a]pyridine-8-carbonitrile], no more than 100 nM; in that of `CN(c1nc2ccc(-c3cc(C#N)c4nn(C)cc4c3)nc2s1)C1CC(C)(C)NC(C)(C)C1` [Compound 148, 2-methyl-5-{2-[methyl(2,2,6,6-tetramethylpiperidin-4-yl)amino][1,3]thiazolo[5,4-b]pyridin-5-yl}-2H-indazole-7-carbonitrile], no more than 100 nM.
`Cc1cc(-c2cc3sc(N(C)C4CC5CCCC(C4)N5)nc3cn2)cc2cn(C)nc12` (stereo not drawn) [Compound 263, N-(9-azabicyclo[3.3.1]non-3-yl)-6-(2,7-dimethyl-2H-indazol-5-yl)-N-methyl[1,3]thiazolo[4,5-c]pyridin-2-amine] registered an IC50 of no more than 100 nM.
For the molecule `Cc1cn2nc(-c3cc(F)c4nc(C5CCN[C@H](C)C5)sc4c3)ccc2n1` (stereo partly drawn) [Compound 144, 6-{4-fluoro-2-[(2R)-2-methylpiperidin-4-yl]-1,3-benzothiazol-6-yl}-2-methylimidazo[1,2-b]pyridazine], the IC50 was no more than 100 nM.
As for `Cc1nn2cc(-c3cc4sc(N(C)C5CC(C)(C)NC(C)(C)C5)nc4cn3)nc2s1` [Compound 308, N-methyl-6-(2-methylimidazo[2,1-b][1,3,4]thiadiazol-6-yl)-N-(2,2,6,6-tetramethylpiperidin-4-yl)[1,3]thiazolo[4,5-c]pyridin-2-amine], the IC50 fell in the range of 1000 to 3000 nM.
`Cn1cc2cc(-c3ccc4nc(C5CCNCC5)sc4c3)cc(F)c2n1` [Compound 83, 6-(7-fluoro-2-methyl-2H-indazol-5-yl)-2-(piperidin-4-yl)-1,3-benzothiazole] showed an IC50 of no more than 100 nM.
In the case of `Oc1cc(-c2cn[nH]c2)ccc1-c1cc2sc(NC3CCNCC3)nc2nn1` [Compound 357, 2-{6-[(piperidin-4-yl)amino][1,3]thiazolo[4,5-c]pyridazin-3-yl)-5-(1H-pyrazol-4-yl)phenol] it was 100 to 500 nM; in that of `Cc1cn2cc(-c3ccc4nc(C5CCNCC5)sc4c3)ncc2n1` [Compound 169, 2-methyl-6-[2-(piperidin-4-yl)-1,3-benzothiazol-6-yl]imidazo[1,2-a]pyrazine], 100 to 500 nM.
In the case of `Cc1cc(-c2ccc3nc(N(C)C4CCNCC4)sc3n2)cc2cn(C)nc12` [Compound 36, 5-(2,7-dimethyl-2H-indazol-5-yl)-N-methyl-N-(piperidin-4-yl)[1,3]thiazolo[5,4-b]pyridin-2-amine] it was 100 to 500 nM.
In the case of `Cc1cn2cc(-c3cc4sc(OC5CCNCC5)nc4cn3)cc(F)c2n1` [Compound 314, 6-(8-fluoro-2-methylimidazo[1,2-a]pyridin-6-yl)-2-[(piperidin-4-yl)oxy][1,3]thiazolo[4,5-c]pyridine] it was 100 to 500 nM; in that of `CN1C(C)(C)CC(Nc2nc3cnc(-c4cc(F)c5nn(C)cc5c4)cc3s2)CC1(C)C` [Compound 269, 6-(7-fluoro-2-methyl-2H-indazol-5-yl)-N-(1,2,2,6,6-pentamethylpiperidin-4-yl)[1,3]thiazolo[4,5-c]pyridin-2-amine], 100 to 500 nM.
In turn, `CN(c1nc2cnc(-c3cc(F)c4nn(C)cc4c3)cc2s1)C1CCNCC1` [Compound 216, 6-(7-fluoro-2-methyl-2H-indazol-5-yl)-N-methyl-N-(piperidin-4-yl)[1,3]thiazolo[4,5-c]pyridin-2-amine] showed an IC50 of 100 to 500 nM.
In the case of `Cn1cc2cc(-c3nc4ccc(C5CCNCC5)cc4s3)ccc2n1` [Compound 5, 2-(2-methyl-2H-indazol-5-yl)-6-(piperidin-4-yl)-1,3-benzothiazole] it was 500 to 1000 nM; in that of `Cc1nc2c(C)cc(-c3ccc4nc(C5CCNCC5)sc4c3)cc2[nH]1` [Compound 94, 6-(2,4-dimethyl-1H-benzimidazol-6-yl)-2-(piperidin-4-yl)-1,3-benzothiazole], no more than 100 nM; in that of `CN(c1nc2cnc(-c3cc(C#N)c4nn(C)cc4c3)nc2s1)C1CCNCC1` [Compound 193, 2-methyl-5-{2-[methyl(piperidin-4-yl)amino][1,3]thiazolo[5,4-d]pyrimidin-5-yl}-2H-indazole-7-carbonitrile], no more than 100 nM.
Consider `CC1C=C(c2nc3ccc(-c4ccc5nn(C)cc5c4)cc3s2)CCN1` (stereo not drawn) [Compound 67, 6-(2-methyl-2H-indazol-5-yl)-2-(6-methyl-1,2,3,6-tetrahydropyridin-4-yl)-1,3-benzothiazole], for which the half-maximal inhibitory concentration (IC50) lay within 1000 to 3000 nM.
`CN1CC[C@@H]2[C@@H](CCN2c2nc3nnc(-c4ccc(-c5cn[nH]c5)cc4O)cc3s2)C1` [Compound 347, 2-{6-[(3aS,7aR)-5-methyloctahydro-1H-pyrrolo[3,2-c]pyridin-1-yl][1,3]thiazolo[4,5-c]pyridazin-3-yl}-5-(1H-pyrazol-4-yl)phenol]: the IC50 was 1000 to 3000 nM.

What is called IC50 is the concentration that inhibits the measured activity by half. Low readings indicate greater potency, high ones weaker potency.

The values above are taken from patent US12139499B2, “Heteroaryl compounds for treating Huntington's disease” (PTC THERAPEUTICS, INC., priority 2018, dated 2024).
